Source: ChEMBL document CHEMBL1201862, “PubChem BioAssay data set” (2004)
Several values for one entry are separate records, joined by “and”; a condition that tells them apart may be missing. Equal entries are not always repeated.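 All cell lines were grown in 96-well plates and treated with compound for 48 hours. Abbreviation: GI50, concentration required for 50% inhibition of growth.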 Activity calls are given as the source filed them. Cut-off read from the data, not from the text of the source: active = GI50 up to about 1.1 µM and inactive = higher.

Tests used:
Experiment in all cases: NCI anticancer screen, dose series, 48 h
[1] = tested on: HCC 2998
[2] = tested on: NCI-H522
[3] = tested on: SN12C
[4] = tested on: IGROV-1
[5] = tested on: SK-MEL-5
[6] = tested on: TK-10
[7] = tested on: SF-539
[8] = tested on: OVCAR-5
[9] = tested on: U-251
[10] = tested on: A549
[11] = tested on: NCI-H23
[12] = tested on: SW-620
[13] = tested on: NCI-H460
[14] = tested on: HL-60
[15] = tested on: SK-MEL-2

Measured: GI50

C=CCn1c(=S)sc2c(O)ncnc21
inactive: [1] > 100 µM | [2] > 100 µM | [3] > 100 µM | [4] > 100 µM | [5] > 100 µM | [6] > 100 µM | [7] > 100 µM | [8] > 100 µM | [9] 48.8 µM | [10] > 100 µM | [11] > 100 µM | [12] > 100 µM | [13] > 100 µM | [14] > 100 µM | [15] > 100 µM

Sc1nnc(-c2cccnc2)[nH]1
inactive: [1] > 100 µM | [3] > 100 µM | [5] > 100 µM | [6] > 100 µM | [8] > 100 µM | [9] > 100 µM | [10] > 100 µM | [11] > 100 µM | [12] > 100 µM | [13] > 100 µM | [14] > 100 µM | [15] > 100 µM

COC(=O)C(C(=O)C(=O)Nc1ccc([N+](=O)[O-])cc1)c1nc2ccc([N+](=O)[O-])cc2nc1O (configuration not stated)
inactive: [1] > 100 µM | [2] 14.1 µM | [3] > 100 µM | [4] > 100 µM | [5] 65.6 µM | [6] > 100 µM | [7] > 100 µM | [8] > 100 µM | [9] > 100 µM | [10] > 100 µM | [11] > 100 µM | [12] > 100 µM | [13] > 100 µM | [14] 41.9 µM | [15] > 100 µM

Cc1ccc(N2C(=O)/C(=C3\Sc4c(nc(C)[nH]c4=O)N3c3ccccc3)SC2=S)cc1
inactive: [2] 48.4 µM | [3] > 100 µM | [4] 60.3 µM | [5] > 100 µM | [6] 24 µM | [7] 10 µM | [8] > 100 µM | [9] 17.3 µM | [10] 43 µM | [11] 19.8 µM | [12] > 100 µM | [13] 22.2 µM | [14] > 100 µM | [15] 20.3 µM

CCOC(=O)/C(=C/c1cccc(OC)c1)N(CC)CC
inactive: [2] > 100 µM | [4] > 100 µM | [5] > 100 µM | [6] > 100 µM | [7] > 100 µM | [8] > 100 µM | [9] > 100 µM | [10] > 100 µM | [11] > 100 µM | [12] > 100 µM | [13] > 10 µM | [14] > 100 µM | [15] > 100 µM

Clc1cc2n[se]nc2cc1Cl
inactive: [1] > 100 µM | [3] > 100 µM | [4] > 100 µM | [5] > 100 µM | [6] > 100 µM | [7] > 100 µM | [8] > 100 µM | [9] > 100 µM | [10] > 100 µM | [11] > 100 µM | [12] > 100 µM | [13] > 100 µM | [14] 84.1 µM | [15] > 100 µM

O=C1c2ccccc2N2OC3(N4CCCC4)CCCC3C12c1ccccc1 (configuration not stated)
inactive: [1] > 100 µM | [2] > 100 µM | [3] > 100 µM | [4] > 100 µM | [5] 61.4 µM | [7] > 100 µM | [9] > 100 µM | [10] 68.5 µM | [11] > 100 µM | [12] > 100 µM | [14] 43.3 µM

COc1cccc2c(SCC(=O)Nc3ccccc3-c3ccccc3NC(=O)CSc3c4ccccc4nc4c(OC)cccc34)c3ccccc3nc12
inactive: [1] > 100 µM | [3] > 100 µM | [4] 43.1 µM | [5] > 100 µM | [6] > 100 µM | [7] 60.5 µM | [8] > 100 µM | [9] > 100 µM | [10] > 100 µM | [11] > 100 µM | [13] > 100 µM | [14] 9.93 µM | [15] > 100 µM

NC1=NS(=O)(=O)Nc2nc(-c3ccc(Cl)cc3)c(-c3ccc(Cl)cc3)nc21
inactive: [1] > 100 µM | [2] 48 µM | [3] > 100 µM | [4] > 100 µM | [5] > 100 µM | [6] > 100 µM | [7] > 100 µM | [8] > 100 µM | [9] 65.8 µM | [10] > 100 µM | [11] > 100 µM | [12] > 100 µM | [13] > 100 µM | [14] > 100 µM

CC1=C(C(=O)Nc2c(C)cccc2C)C(c2ccc3c(c2)OCO3)C(C(=O)Nc2c(C)cccc2C)=C(C)N1
inactive: [1] 18.1 µM | [2] 14.9 µM | [3] 16.7 µM | [4] 4.2 µM | [6] 24.7 µM | [7] 19.2 µM | [8] 19.1 µM | [9] 15.5 µM | [10] 19.7 µM | [11] 16.1 µM | [12] 18.2 µM | [13] 18.5 µM | [14] 16.3 µM

CCCCCC(CN1CCOCC1)C(=O)/C=C/c1ccccc1 (configuration not stated)
inactive: [1] 2 µM | [3] 2.94 µM | [4] 3.37 µM | [5] 1.53 µM | [7] 2.07 µM | [8] 2.63 µM | [9] 2.77 µM | [10] 3.3 µM | [11] 3.36 µM | [12] 1.74 µM | [13] 2.77 µM | [14] 1.85 µM

O=S(O)CCCCSSCC(O)C(O)CSSCCCCS(=O)O (configuration not stated)
inactive: [3] 40.5 µM and 34.9 µM | [4] 83.6 µM and 44.5 µM | [6] 68.2 µM and 53.8 µM | [7] 17.6 µM and 23 µM | [8] > 100 µM and 74.8 µM | [9] 71.1 µM and 50.6 µM | [10] 34.5 µM and 27.1 µM | [11] 18.4 µM and 29.2 µM | [12] 21.5 µM and 19.5 µM | [13] 52.4 µM and 40.4 µM | [14] 10.2 µM and 10.6 µM | [15] 17.4 µM and 15 µM

CCN(CC)CCCCC1CCN(CC(=O)N2c3ccccc3NC(=O)c3ccccc32)CC1
inactive: [1] > 100 µM | [2] > 100 µM | [3] > 100 µM | [5] > 100 µM | [6] > 100 µM | [7] > 100 µM | [10] > 100 µM | [11] 55.6 µM | [12] > 100 µM | [14] > 100 µM | [15] > 100 µM

[N-]=[N+]=NC1C(Cl)C(=O)NC(=O)N1[C@H]1C[C@H](O)[C@@H](CO)O1 (some centres not stated)
inactive: [1] > 100 µM | [3] > 100 µM | [4] > 100 µM | [6] > 100 µM | [7] > 100 µM | [8] > 100 µM | [9] > 100 µM | [10] > 100 µM | [11] > 100 µM | [12] > 100 µM | [13] > 100 µM | [14] > 100 µM | [15] > 100 µM
